Experiments:
tumor cells = conditions: mouse, rat and human liver microsomes; cited from earlier work
[1] = system: tumor cells resistant to L-PAM or cDDP, or cells resistant to Topoisomerase II inhibitors (at-mdr); conditions: cited from earlier work
[2] = system: tumor cells resistant to anthracyclines and presenting the mdr phenotype; conditions: cited from earlier work
[3] = system: patients with liver cancer; assay: Hematological toxicity - Neutrophils, worst CTC Grade by cycle, intrahepatic artery nemorubicin q8wk vs q6wk; format: in vivo, human
Procedure: (§1) The objective of the study was to shorten the time interval between treatment administrations from every 8 weeks (q8wk) of the protocol as reported in WO 00/15203 to every 6 weeks (q6wk). This was done in the attempt of improving the therapeutic potential of nemorubicin treatment through an increase of the dose intensity of the therapy, simultaneously safeguarding patient safety.
(§2) Overall, 13 patients were treated with the q8wk schedule (total 25 cycles administered; doses ranged from 200 to 800 mcg/m^2), and 11 patients were treated with the q6wk schedule (total 32 cycles administered; doses were 200 and 600 mcg/m^2).
(§3) The NCI-Common Tosicity Criteria grading system (CTC Grade), Version 2.0, was used to report toxicities.
(§4) A slight cumulative effect (i.e., increase in frequency but not in severity) was observed after repeated cycles for leucopenia and neutropenia (Tables 2 and 3), mainly with the q8wk schedule.

[4] = system: patients with liver cancer; assay: Hematological toxicity - Leucocytes, worst CTC Grade by cycle, intrahepatic artery nemorubicin q8wk vs q6wk; format: in vivo, human
Procedure: as §1, §2, §3, §4

[5] = 200 mcg/m^2 q6wk, All cycles, 11 evaluable cycles
[6] = 200 mcg/m^2 q6wk, Cycle 1, 5 evaluable cycles
[7] = 200 mcg/m^2 q6wk, Cycles > 1, 6 evaluable cycles
[8] = 200 mcg/m^2 q8wk, All cycles, 5 evaluable cycles
[9] = 200 mcg/m^2 q8wk, Cycle 1, 3 evaluable cycles
[10] = 200 mcg/m^2 q8wk, Cycles > 1, 2 evaluable cycles
[11] = 400 mcg/m^2 q8wk, All cycles, 4 evaluable cycles
[12] = 400 mcg/m^2 q8wk, Cycle 1, 3 evaluable cycles
[13] = 600 mcg/m^2 q6wk, All cycles, 18 evaluable cycles
[14] = 600 mcg/m^2 q6wk, Cycle 1, 6 evaluable cycles
[15] = 600 mcg/m^2 q6wk, Cycles > 1, 12 evaluable cycles
[16] = 600 mcg/m^2 q8wk, All cycles, 8 evaluable cycles
[17] = 600 mcg/m^2 q8wk, Cycles > 1, 4 evaluable cycles
[18] = 800 mcg/m^2 q8wk, All cycles, 4 evaluable cycles
[19] = 800 mcg/m^2 q8wk, Cycle 1, 3 evaluable cycles
[20] = 600 mcg/m^2 q8wk, Cycle 1, 4 evaluable cycles

## COc1cccc2c1C(=O)c1c(O)c3c(c(O)c1C2=O)C[C@@](O)(C(=O)CO)C[C@@H]3O[C@H]1C[C@H](N2CCO[C@H](OC)C2)[C@H](O)[C@H](C)O1.Cl [nemorubicin, 3′desamino-3′[2(S)methoxy-4-morpholinyl]doxorubicin-hydrochloride]
Tumor cells
  cytotoxic activity in vitro in the presence of liver microsomes: increased
[1]
  cross-resistance: No cross-resistance
[2]
  activity in vitro and in vivo: active
[3]; [5]
  Neutrophils, worst CTC Grade by cycle: All Grades (%): 4 (36%) (%)
  Neutrophils, worst CTC Grade by cycle: Grade 1-2 (%): 4 (36%) (%)
[3]; [6]
  Neutrophils, worst CTC Grade by cycle: All Grades (%): 2 (40%) (%)
  Neutrophils, worst CTC Grade by cycle: Grade 1-2 (%): 2 (40%) (%)
[3]; [7]
  Neutrophils, worst CTC Grade by cycle: All Grades (%): 2 (33%) (%)
  Neutrophils, worst CTC Grade by cycle: Grade 1-2 (%): 2 (33%) (%)
[3]; [8]
  Neutrophils, worst CTC Grade by cycle: All Grades (%): 3 (60%) (%)
  Neutrophils, worst CTC Grade by cycle: Grade 1-2 (%): 3 (60%) (%)
[3]; [9]
  Neutrophils, worst CTC Grade by cycle: All Grades (%): 1 (33%) (%)
  Neutrophils, worst CTC Grade by cycle: Grade 1-2 (%): 1 (33%) (%)
[3]; [10]
  Neutrophils, worst CTC Grade by cycle: All Grades (%): 2 (100%) (%)
  Neutrophils, worst CTC Grade by cycle: Grade 1-2 (%): 2 (100%) (%)
[3]; [11]
  Neutrophils, worst CTC Grade by cycle: All Grades (%): 1 (25%) (%)
  Neutrophils, worst CTC Grade by cycle: Grade 1-2 (%): 1 (25%) (%)
[3]; [12]
  Neutrophils, worst CTC Grade by cycle: All Grades (%): 1 (33%) (%)
  Neutrophils, worst CTC Grade by cycle: Grade 1-2 (%): 1 (33%) (%)
[3]; [13]
  Neutrophils, worst CTC Grade by cycle: All Grades (%): 3 (17%) (%)
  Neutrophils, worst CTC Grade by cycle: Grade 1-2 (%): 3 (17%) (%)
[3]; [14]
  Neutrophils, worst CTC Grade by cycle: All Grades (%): 1 (17%) (%)
  Neutrophils, worst CTC Grade by cycle: Grade 1-2 (%): 1 (17%) (%)
[3]; [15]
  Neutrophils, worst CTC Grade by cycle: All Grades (%): 2 (17%) (%)
  Neutrophils, worst CTC Grade by cycle: Grade 1-2 (%): 2 (17%) (%)
[3]; [16]
  Neutrophils, worst CTC Grade by cycle: All Grades (%): 2 (25%) (%)
  Neutrophils, worst CTC Grade by cycle: Grade 1-2 (%): 2 (25%) (%)
[3]; [17]
  Neutrophils, worst CTC Grade by cycle: All Grades (%): 2 (50%) (%)
  Neutrophils, worst CTC Grade by cycle: Grade 1-2 (%): 2 (50%) (%)
[3]; [18]
  Neutrophils, worst CTC Grade by cycle: All Grades (%): 1 (25%) (%)
  Neutrophils, worst CTC Grade by cycle: Grade 1-2 (%): 1 (25%) (%)
[3]; [19]
  Neutrophils, worst CTC Grade by cycle: All Grades (%): 1 (33%) (%)
  Neutrophils, worst CTC Grade by cycle: Grade 1-2 (%): 1 (33%) (%)
[4]; [5]
  Leucocytes, worst CTC Grade by cycle: All Grades (%): 4 (36%) (%)
  Leucocytes, worst CTC Grade by cycle: Grade 1-2 (%): 3 (27%) (%)
[4]; [6]
  Leucocytes, worst CTC Grade by cycle: All Grades (%): 1 (20%) (%)
[4]; [7]
  Leucocytes, worst CTC Grade by cycle: All Grades (%): 3 (50%) (%)
  Leucocytes, worst CTC Grade by cycle: Grade 1-2 (%): 3 (50%) (%)
[4]; [8]
  Leucocytes, worst CTC Grade by cycle: All Grades (%): 4 (80%) (%)
  Leucocytes, worst CTC Grade by cycle: Grade 1-2 (%): 4 (80%) (%)
[4]; [9]
  Leucocytes, worst CTC Grade by cycle: All Grades (%): 2 (67%) (%)
  Leucocytes, worst CTC Grade by cycle: Grade 1-2 (%): 2 (67%) (%)
[4]; [10]
  Leucocytes, worst CTC Grade by cycle: All Grades (%): 2 (100%) (%)
  Leucocytes, worst CTC Grade by cycle: Grade 1-2 (%): 2 (100%) (%)
[4]; [11]
  Leucocytes, worst CTC Grade by cycle: All Grades (%): 1 (25%) (%)
  Leucocytes, worst CTC Grade by cycle: Grade 1-2 (%): 1 (25%) (%)
[4]; [12]
  Leucocytes, worst CTC Grade by cycle: All Grades (%): 1 (33%) (%)
  Leucocytes, worst CTC Grade by cycle: Grade 1-2 (%): 1 (33%) (%)
[4]; [13]
  Leucocytes, worst CTC Grade by cycle: All Grades (%): 8 (44%) (%)
  Leucocytes, worst CTC Grade by cycle: Grade 1-2 (%): 8 (44%) (%)
[4]; [14]
  Leucocytes, worst CTC Grade by cycle: All Grades (%): 2 (33%) (%)
  Leucocytes, worst CTC Grade by cycle: Grade 1-2 (%): 2 (33%) (%)
[4]; [15]
  Leucocytes, worst CTC Grade by cycle: All Grades (%): 6 (50%) (%)
  Leucocytes, worst CTC Grade by cycle: Grade 1-2 (%): 6 (50%) (%)
[4]; [16]
  Leucocytes, worst CTC Grade by cycle: All Grades (%): 7 (87%) (%)
  Leucocytes, worst CTC Grade by cycle: Grade 1-2 (%): 7 (87%) (%)
[4]; [20]
  Leucocytes, worst CTC Grade by cycle: All Grades (%): 3 (75%) (%)
  Leucocytes, worst CTC Grade by cycle: Grade 1-2 (%): 3 (75%) (%)
[4]; [17]
  Leucocytes, worst CTC Grade by cycle: All Grades (%): 4 (100%) (%)
  Leucocytes, worst CTC Grade by cycle: Grade 1-2 (%): 4 (100%) (%)

Source: US20060264388A1, “Method for treating liver cancer by intrahepatic administration of nemorubicin” (priority 2003, published 2006)
